Target: S1PR1 (sphingosine-1-phosphate receptor 1) (Homo sapiens, UniProt P21453)
Assay: saturation autoradiography with the tritiated ligand on human brain sections

S1PR1 (sphingosine-1-phosphate receptor 1), sequence (P21453 whole entry): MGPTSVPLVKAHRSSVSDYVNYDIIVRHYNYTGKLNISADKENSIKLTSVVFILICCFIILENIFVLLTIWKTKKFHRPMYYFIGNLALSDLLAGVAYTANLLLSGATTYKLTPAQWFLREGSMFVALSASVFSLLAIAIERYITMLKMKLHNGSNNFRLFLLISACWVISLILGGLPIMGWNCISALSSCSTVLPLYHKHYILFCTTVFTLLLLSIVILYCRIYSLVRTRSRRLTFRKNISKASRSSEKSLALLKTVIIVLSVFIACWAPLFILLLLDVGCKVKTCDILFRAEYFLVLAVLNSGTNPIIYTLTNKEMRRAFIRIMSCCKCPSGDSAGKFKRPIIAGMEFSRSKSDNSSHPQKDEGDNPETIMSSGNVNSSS

Kd: 2.7 ± 0.2 nM
Substance: [^3H]CS1P1

Reference: PMC11037862 (ACS chemical neuroscience, 2023)
